Key:
Test in all cases: GRmax, 72 h; higher = less effect;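 further: breast cell lines in 384-well plates, nine doses across a 10^4 range, Dye Drop imaging of viable cells vs DMSO and time-zero plates, GR 0 means no net growth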
PDX1328 = tested on: PDX1328
MCF7 = tested on: MCF7
ZR751 = tested on: ZR751
184A1 = tested on: 184A1
SUM44PE = tested on: SUM44PE
SUM185PE = tested on: SUM185PE
SUM149 = tested on: SUM149
HCC1569 = tested on: HCC1569
SUM229PE = tested on: SUM229PE
BT20 = tested on: BT20
MDAMB175VII = tested on: MDAMB175VII
MDAMB361 = tested on: MDAMB361
UACC893 = tested on: UACC893
HCC202 = tested on: HCC202
SUM190PT = tested on: SUM190PT

Structure (SMILES) | GRmax, 72 h (PDX1328) | GRmax, 72 h (MCF7) | GRmax, 72 h (ZR751) | GRmax, 72 h (184A1) | GRmax, 72 h (SUM44PE) | GRmax, 72 h (SUM185PE) | GRmax, 72 h (SUM149) | GRmax, 72 h (HCC1569) | GRmax, 72 h (SUM229PE) | GRmax, 72 h (BT20) | GRmax, 72 h (MDAMB175VII) | GRmax, 72 h (MDAMB361) | GRmax, 72 h (UACC893) | GRmax, 72 h (HCC202) | GRmax, 72 h (SUM190PT)
COc1cccc2c1C(=O)c1c(O)c3c(c(O)c1C2=O)C[C@@](O)(C(=O)CO)C[C@@H]3O[C@H]1C[C@H](N)[C@H](O)[C@H](C)O1 [Doxorubicin] (max 3.162 µM) | -0.739 GR | -0.286 GR | -0.0018 GR | 0.028 GR | -0.677 GR | 0.744 GR | -0.321 GR | -0.132 GR | -0.125 GR | -0.481 GR | -0.595 GR | -0.722 GR | -0.405 GR | 0.245 GR | -0.123 GR
CC(=O)c1c(C)c2cnc(Nc3ccc(N4CCNCC4)cn3)nc2n(C2CCCC2)c1=O (max 3.162 µM) | 0.361 GR | 0.254 GR | 0.482 GR | 0.128 GR | 0.437 GR | 0.852 GR | 0.485 GR | 0.983 GR | 0.4 GR | 0.162 GR | -0.0887 GR | 0.148 GR | 0.344 GR | 0.691 GR | 0.347 GR
Cc1nn(C)c(COc2ccc(N3CCN(S(=O)(=O)N(C)C)CC3)cc2)c1-c1cccc2c(CCCOc3cccc4ccccc34)c(C(=O)O)n(CCN3CCOCC3)c12 (max 10 µM) | 0.873 GR | 0.877 GR | 1.03 GR | -0.164 GR | -0.463 GR | 0.532 GR | 0.391 GR | 0.928 GR | 0.547 GR | 0.821 GR | 0.705 GR | 0.985 GR | 0.763 GR | 0.828 GR | 0.114 GR
CN(C)C/C=C/C(=O)Nc1ccc(C(=O)Nc2cccc(Nc3cc(-c4c[nH]c5ccccc45)ncn3)c2)cc1 [THZ-P1-2] (max 10 µM) | 0.656 GR | -0.708 GR | 0.262 GR | -0.344 GR | -0.518 GR | -0.295 GR | -0.589 GR | -0.359 GR | -0.655 GR | -0.623 GR | -0.765 GR | 0.142 GR | -0.761 GR | -0.2 GR | -0.218 GR
CN1CCN(CCOc2cc(OC3CCOCC3)c3c(Nc4c(Cl)ccc5c4OCO5)ncnc3c2)CC1 [Saracatinib/AZD0530] (max 10 µM) | -0.108 GR | 0.274 GR | 0.328 GR | 0.24 GR | 0.381 GR | 0.419 GR | 0.188 GR | 0.161 GR | 0.236 GR | 0.31 GR | -0.935 GR | -0.178 GR | 0.141 GR | -0.22 GR | 0.581 GR
CC(C)Nc1cc(-c2c[nH]c(C(=O)N[C@H](CO)c3cccc(Cl)c3)c2)c(Cl)cn1 [BVD523] (max 10 µM) | 0.752 GR | 0.334 GR | 0.554 GR | 0.046 GR | -0.0062 GR | 0.734 GR | 0.204 GR | 0.568 GR | 0.265 GR | 0.463 GR | -0.31 GR | 0.27 GR | 0.274 GR | 0.57 GR | 0.237 GR
Cc1cc(Nc2ncc(Cl)c(Nc3ccccc3S(=O)(=O)C(C)C)n2)c(OC(C)C)cc1C1CCNCC1 [Ceritinib/LDK378] (max 10 µM) | -0.943 GR | -0.616 GR | -0.159 GR | -0.728 GR | -0.32 GR | 0.412 GR | -0.438 GR | -0.83 GR | 0.336 GR | -0.737 GR | 0.261 GR | -0.991 GR | 0.807 GR | -0.803 GR | -0.375 GR
NC1(C(=O)N[C@@H](CCO)c2ccc(Cl)cc2)CCN(c2nc[nH]c3nccc2-3)CC1 [AZD5363] (max 10 µM) | 0.766 GR | 0.476 GR | 0.686 GR | 0.773 GR | -0.152 GR | 0.447 GR | 0.34 GR | 0.0764 GR | 0.516 GR | 0.229 GR | -0.28 GR | -0.38 GR | -0.798 GR | 0.572 GR | 0.243 GR
CN(C)CC[C@H](CSc1ccccc1)Nc1ccc(S(=O)(=O)NC(=O)c2ccc(N3CCN(Cc4ccccc4-c4ccc(Cl)cc4)CC3)cc2)cc1[N+](=O)[O-] [ABT-737] (max 10 µM) | -0.678 GR | 0.727 GR | 0.886 GR | -0.0149 GR | -0.0028 GR | -0.294 GR | -0.28 GR | -0.406 GR | 0.418 GR | 0.593 GR | -0.101 GR | 0.844 GR | 0.49 GR | 0.588 GR | -0.475 GR
O=C1NC(=NCc2cccs2)SC1=Cc1ccc2ncccc2c1 [R0-3306] (max 10 µM) | 0.399 GR | 0.067 GR | 0.51 GR | -0.142 GR | -0.266 GR | 0.827 GR | -0.171 GR | -0.166 GR | -0.07 GR | -0.274 GR | -0.0257 GR | 0.111 GR | 0.376 GR | 0.203 GR | -0.11 GR
NC(=O)Nc1cc(-c2cccc(F)c2)sc1C(=O)N[C@H]1CCCNC1 [AZD7762] (max 10 µM) | -0.578 GR | -0.186 GR | -0.0705 GR | -0.513 GR | -0.704 GR | 0.115 GR | -0.477 GR | -0.411 GR | -0.357 GR | -0.578 GR | -0.811 GR | -0.675 GR | -0.308 GR | -0.277 GR | -0.341 GR
CC(=O)c1c(C)c2cnc(Nc3ccc(N4CCN(CCOCCOCCOCCNC(=O)COc5cccc6c5C(=O)N(C5CCC(=O)NC5=O)C6=O)CC4)cn3)nc2n(C2CCCC2)c1=O (stereo not given) [BSJ-03-123] (max 10 µM) | 0.28 GR | -0.323 GR | 0.245 GR | -0.137 GR | 0.289 GR | 0.665 GR | -0.0089 GR | -0.03 GR | 0.132 GR | -0.005 GR | 0.0607 GR | -0.0849 GR | 0.289 GR | 0.0834 GR | -0.279 GR
CC(C)NC[C@@H](C(=O)N1CCN(c2ncnc3c2[C@H](C)C[C@H]3O)CC1)c1ccc(Cl)cc1 [Ipatasertib/GDC0068] (max 10 µM) | 0.704 GR | 0.25 GR | 0.608 GR | 0.631 GR | -0.0416 GR | 0.455 GR | 0.291 GR | 0.234 GR | 0.499 GR | 0.102 GR | -0.5 GR | -0.58 GR | -0.794 GR | 0.306 GR | 0.525 GR
Nc1ccc(-c2ccc3ncc4ccc(=O)n(-c5cccc(C(F)(F)F)c5)c4c3c2)cn1 [Torin2] (max 1 µM) | -0.249 GR | -0.133 GR | -0.0631 GR | 0.0958 GR | -0.556 GR | -0.0832 GR | 0.0058 GR | -0.0827 GR | -0.0085 GR | -0.289 GR | -0.945 GR | -0.964 GR | -0.828 GR | 0.0177 GR | -0.391 GR
Cc1nc(NC(=O)N2CCC[C@H]2C(N)=O)sc1-c1ccnc(C(C)(C)C(F)(F)F)c1 [Alpelisib/BYL719] (max 10 µM) | 0.203 GR | 0.0207 GR | 0.577 GR | 0.431 GR | -0.341 GR | 0.15 GR | 0.848 GR | 0.369 GR | 0.523 GR | -0.118 GR | -0.697 GR | -0.799 GR | -0.757 GR | 0.0449 GR | 0.532 GR
O=C(CCCCCCC(=O)Nc1ccccc1)NO [Vorinostat] (max 10 µM) | -0.285 GR | -0.175 GR | -0.0452 GR | -0.0468 GR | -0.427 GR | 0.222 GR | -0.0704 GR | -0.294 GR | -0.0664 GR | -0.113 GR | -0.867 GR | -0.939 GR | -0.337 GR | 0.104 GR | -0.431 GR
O=C(c1cc(Cc2n[nH]c(=O)c3ccccc23)ccc1F)N1CCN(C(=O)C2CC2)CC1 [Olaparib/AZD2281] (max 10 µM) | 0.631 GR | 0.514 GR | 0.801 GR | 0.563 GR | 0.803 GR | 0.75 GR | 0.205 GR | 0.565 GR | 0.75 GR | 0.606 GR | 0.466 GR | 0.0945 GR | 0.549 GR | 0.606 GR | 0.545 GR
CNC(=O)c1cccc(-c2ccc3c(N4CCOC[C@@H]4C)nc(N4CCOC[C@@H]4C)nc3n2)c1 [AZD2014] (max 10 µM) | 0.0715 GR | -0.0281 GR | -0.0477 GR | 0.0847 GR | -0.315 GR | 0.244 GR | 0.418 GR | 0.0746 GR | 0.338 GR | 0.151 GR | -0.756 GR | -0.756 GR | -0.164 GR | 0.0087 GR | -0.514 GR
COc1cc(N2CCN(C)CC2)ccc1Nc1ncc2c(n1)N(C)c1ccccc1C(=O)N2CC(F)(F)F [FMF-03-146-1] | 0.893 GR | 0.78 GR | 0.939 GR | 1.04 GR | 0.946 GR | 0.833 GR | 0.971 GR | 1.03 GR | 0.999 GR | 0.973 GR | 0.887 GR | 0.362 GR | 0.987 GR | 0.892 GR | 0.886 GR
CCOc1cc2ncc(C#N)c(Nc3ccc(OCc4ccccn4)c(Cl)c3)c2cc1NC(=O)/C=C/CN(C)C [Neratinib/HKI272] (max 3.162 µM) | -0.0735 GR | 0.0582 GR | 0.709 GR | 0.162 GR | -0.202 GR | 0.25 GR | 0.155 GR | 0.117 GR | 0.205 GR | 0.303 GR | -0.979 GR | -0.528 GR | -0.901 GR | 0.0762 GR | 0.42 GR
Cc1nc(-c2cn3c(n2)-c2ccc(-c4cnn(C(C)(C)C(N)=O)c4)cc2OCC3)n(C(C)C)n1 [Taselisib/GDC0032] (max 10 µM) | -0.0629 GR | -0.255 GR | -0.0193 GR | 0.0652 GR | -0.392 GR | -0.367 GR | -0.224 GR | -0.121 GR | -0.0501 GR | -0.375 GR | -0.937 GR | -0.99 GR | -0.898 GR | 0.0192 GR | -0.253 GR
COc1ccc2c(c1)[C@]1(C[C@H]1c1ccc3c(/C=C/c4ccc(CN5C[C@@H](C)O[C@@H](C)C5)cc4)n[nH]c3c1)C(=O)N2 | -0.0338 GR | -0.0551 GR | 0.166 GR | 0.0075 GR | -0.249 GR | 0.364 GR | -0.0713 GR | -0.0697 GR | -0.0183 GR | -0.231 GR | 0.046 GR | 0.272 GR | 0.138 GR | 0.493 GR | 0.12 GR
C=CCn1c(=O)c2cnc(Nc3ccc(N4CCN(C)CC4)cc3)nc2n1-c1cccc(C(C)(C)O)n1 [AZD1775] (max 10 µM) | -0.32 GR | -0.0913 GR | 0.247 GR | 0.0471 GR | -0.813 GR | 0.213 GR | -0.497 GR | -0.167 GR | -0.259 GR | -0.677 GR | -0.203 GR | -0.348 GR | -0.42 GR | -0.148 GR | -0.197 GR
